The text below walks through data of US20250051282A1, “COMPOUNDS FOR TREATING POLYQ-RELATED NEURODEGENERATIVE DISORDERS” (HANGZHOU JIJING PHARMACEUTICAL TECHNOLOGY LIMITED, priority 2021, published 2025).

Bounds are passed on as bounds.

In the experiment the test system is ATXN1(60Q). Description: Daoy-ATXN1(60Q)-mATXN1 MSD assay (CTG normalized). The class given is cell-based. As to conditions: Daoy-Flag-ATXN1(60Q) stable cells, compound added Day 2, lysis Day 3, final DMSO 0.3%, read-out: Daoy-ATXN1(60Q)-mATXN1 MSD (CTG normalized) DC50. How it is done:
Protocol for MSD Assay: Daoy-ATXN1(600)-mATXN1 MSD (CTG normalized)
The Flag-ATXN1(60Q) gene is synthesized by Genescript and cloned into the pLVX-IRES-Puro vector (Takarabio, catalog No. 632183) using EcoRI/BamHI restriction enzyme sites. Lentivirus is made by transfecting HEK293T cells with pLVX-IRES-Puro-Flag-ATXN1(60Q) plasmids and packaging plasmids psPAX2 and pMD2.G at 4:3:1 ratio (8:6:[…], respectively) in 10 cm plates, and are harvested at 48 hours post transfection. Daoy cells (ATCC catalog No. HTB-186) seeded in T25 flasks are infected with the lentivirus in the presence of 8 µg/mL polybrene (Sigma, TR-1003-G) for 24 hours. 48 hours post infection, the cells are selected using 0.5 […] (Sigma, P8833) for more than 5 days until all cells in the uninfected group die. The expression of Flag-ATXN1(60Q) is verified by anti-Flag immunoblot using anti-Flag antibody (Sigma, F1804-200UG, M2).
As explained above, Daoy-Flag-ATXN1(60Q) cells are prepared as a stable cell line by infecting Daoy cells with lentivirus. The media for the cells is EMEM (ATTC, 30-2008) with 10% fetal bovin serum (FBS).
On Day 1, the Daoy-Flag-ATXN1(60Q) cells are seeded in a 96 well plate at a concentration of 1.2×10^4/well. On Day 2, the cells are treated with test compounds at test concentrations (compounds are serially diluted with DMSO to obtain test concentrations, such that final DMSO concentration is 0.3%). On Day 3, the cells are washed with 100 μL of phosphate-buffered saline (PBS) per well, and then 30 μL of radioimmuno-precipitation assay (RIPA) buffer (with protease and phosphatase inhibitor cocktail) is added to each well.
The well plate is then cooled on ice for 30 minutes in order to complete lysis, and MSD samples are prepared using 10 μL of Daoy-Flag-ATXN1-60Q lysate and 90 μL of RIPA buffer with gentle mixing. Each MSD sample has a total volume of 100 μL, and is used immediately or stored at −80° C.
A standard Meso Scale Discovery (MSD) plate is coated with anti-Flag (Sigma, F1804-200UG, M2) in PBS at 1:500 dilution ratio and 40 µL/well, and is incubated at 4° C. overnight with shaking at 600 rpm. Then, the MSD plate is washed 3 times with 150 µL/well of 1X TBST (tris-buffered saline (TBS) with Tween 20) buffer, and the MSD plate is blocked with 150 μL of blocking buffer [3% Blocker A in 1X TBST, (3 g Blocker A per 100 mL 1X TBST)] and shaken for 1 hour at 600 rpm at room temperature. Then, the MSD plate is washed three times with 150 μL/well of 1X TBST. Next, the diluted lysate samples (from Sample Preparation above) are added to the MSD plate at 25 μL/well, and the MSD plate is shaken at 600 rpm for 1 hour at room temperature. Then the MSD plate is washed 3 times with 150 μL/well of 1X TBST.
Detection antibody anti-Ataxin 1 (G-bio, ITA1916) (1:500), which is prepared in antibody detection buffer (1% Blocker A in 1X TBST), is then added to the MSD plate at 25 µL/well, and the MSD plate is shaken at 600 rpm for 1 hour at room temperature. The MSD plate is then washed three times with 150 μL/well of 1X TBST. Next, a secondary detection antibody, Goat anti-rabit (GAR) with SULFO-TAG (1:500), which is prepared in antibody detection buffer (1% Blocker A in 1X TBST), is added at 25 μL/well and the MSD plate is shaken at 600 rpm for 1 hour at room temperature. Then the MSD plate is washed 3 times with 150 μL/well of 1X TBST, and 2X MSD reading buffer is added at 150 μL/well (diluted from 4x MSD reading buffer with water). Finally, the signal from each well is measured on the MSD Meso QuickPle SQ120 Plate Reader. DC50 data is calculated using collaborate drug discovery (CDD) software (https://www.collaborativedrug.com/about).
`O=C1Nc2ccc(Br)cc2/C1=C(/Nc1ccnnc1)c1ccc2[nH]c(=O)oc2c1` [Example 64, (Z)-6-((5-bromo-2-oxoindolin-3-ylidene)(pyridazin-4-ylamino)methyl) benzo[d]oxazol-2(3H)-one]: the DC50 is less than 10 µM. Then `CN1CCC(N/C(=C2\C(=O)Nc3ccc(Br)cc32)c2cccc(O)c2)CC1` [Example 15, (Z)-5-bromo-3-((3-hydroxyphenyl)((1-methylpiperidin-4-yl)amino)methylene) indolin-2-one], with less than 10 µM; and `N/C(=C1\C(=O)Nc2ccc(Br)cc21)c1cc2ccccc2o1` [Example 76, (Z)-3-(amino (benzofuran-2-yl)methylene)-5-bromoindolin-2-one], with less than 10 µM; and `C/C(=C1\C(=O)Nc2ccc(Br)cc21)c1cccc(O)c1` [Example 85, (E)-5-bromo-3-(1-(3-hydroxyphenyl)ethylidene)indolin-2-one], with 10 to 30 µM.

As for `O=C1Nc2ccc(Br)cc2/C1=C(/NC1CNC1)c1cccc(O)c1` [Example 26, (Z)-3-((azetidin-3-ylamino)(3-hydroxyphenyl)methylene) 5-bromindolin-2-one], the DC50 was less than 10 µM.

`C/C(=C1\C(=O)Nc2ccc(Br)cc21)c1ccc(F)c(O)c1` [Example 92, (E)-5-bromo-3-(1-(4-fluoro-3-hydroxyphenyl)ethylidene) indolin-2-one]: the DC50 was less than 10 µM. Then `COc1cc(/C(Nc2ccnnc2)=C2/C(=O)Nc3ccc(Br)cc32)ccc1N` [Example 62, (Z)-3-((4-amino-3-methoxyphenyl)(pyridazin-4-ylamino)methylene)-5-bromoindolin-2-one], with more than 30 µM.

`Cn1cc(N/C(=C2\C(=O)Nc3ccc(Br)cc32)c2cccc(F)c2)cn1` [Example 21, (Z)-5-bromo-3-((3-fluorophenyl)((1-methyl-1H-pyrazol-4-yl)amino)methylene) indolin-2-one]: the DC50 is more than 30 µM. Then `CCC/C(=C1\C(=O)Nc2ccc(Br)cc21)c1cccc(O)c1` [Example 100, (E)-5-bromo-3-(1-(3-hydroxyphenyl)butylidene)indolin-2-one], with less than 10 µM.

Take `O=C1Nc2ccc(OC(F)(F)F)cc2/C1=C(/NCCO)c1cccc(O)c1` [Example 18, (Z)-3-(((2-hydroxyethyl)amino)(3-hydroxyphenyl)methylene)-5-(trifluoromethoxy) indolin-2-one]: the DC50 is less than 10 µM. Then `Nc1ccc(/C(Nc2ccnnc2)=C2/C(=O)Nc3ccc(Br)cc32)cc1O` [Example 63, (Z)-3-((4-amino-3-hydroxyphenyl)(pyridazin-4-ylamino)methylene)-5-bromoindolin-2-one], with less than 10 µM; and `C/C(=C1\C(=O)Nc2ccc(Br)cc21)c1cc(O)c(O)c(Br)c1` [Example 98, 5-Bromo-3-(1-(3-bromo-4,5-dihydroxyphenyl)ethylidene)indolin-2-one], with more than 30 µM.

With `Cn1cc(N/C(=C2\C(=O)Nc3ccc(Br)cc32)c2ccccc2)c(C(F)(F)F)n1` [Example 51, (Z)-5-bromo-3-(((1-methyl-3-(trifluoromethyl)-1H-pyrazol-4-yl)amino)(phenyl)methylene)indolin-2-one], the DC50 was more than 30 µM. Then `CC(=C1C(=O)Nc2ccc(C(F)(F)F)cc21)c1cccc(O)c1` [Example 95, 3-(1-(3-Hydroxyphenyl)ethylidene)-5-(trifluoromethyl) indolin-2-one], with less than 10 µM. Then `Nc1cccc(/C(NC2CNC2)=C2/C(=O)Nc3ccc(OC(F)(F)F)cc32)c1` [Example 34, (Z)-3-((3-aminophenyl)(azetidin-3-ylamino)methylene)-5-(trifluoromethoxy) indolin-2-one], with less than 10 µM; and `O=C1Nc2ccc(Br)cc2/C1=C(/Nc1ccnnc1)c1cccc(O)c1` [Example 38, (Z)-5-bromo-3-((3-hydroxyphenyl)(pyridazin-4-ylamino)methylene) indolin-2-one], with less than 10 µM.

Turning to `O=C1Nc2ccc(Br)cc2/C1=C(/Nc1cnnc(Cl)c1)c1ccccc1` [Example 47, (Z)-5-bromo-3-((6-chloropyridazin-4-ylamino)(phenyl)methylene)indolin-2-one], the DC50 was more than 30 µM. Then `NCCN/C(=C1\C(=O)Nc2ccc(Br)cc21)c1cccc(C(F)F)c1` [Example 30, (Z)-3-(((2-aminoethyl)amino)(3-(difluoromethyl)phenyl)methylene)-5-bromoindolin-2-one], with less than 10 µM; and `O=C1Nc2ccc(Br)cc2/C1=C(\c1cccc(O)c1)N1CCCCC1` [Example 12, (Z)-5-bromo-3-((3-hydroxyphenyl) (piperidin-1-yl)methylene) indolin-2-one], with more than 30 µM; and `Nc1cccc(/C(NC2CNC2)=C2/C(=O)Nc3ccc(Br)cc32)c1` [Example 33, (Z)-3-((3-aminophenyl)(azetidin-3-ylamino)methylene)-5-bromoindolin-2-one], with less than 10 µM. Then `C/C(=C1\C(=O)Nc2ccc(Br)cc21)c1ccc2[nH]c(=O)oc2c1` [Example 88, (E)-6-(1-(5-bromo-2-oxoindolin-3-ylidene)ethyl)benzo[d]oxazol-2(3H)-one], with more than 30 µM; and `O=C1Nc2ccc(Br)cc2/C1=C(/Nc1cncnc1)c1cccc(O)c1` [Example 69, (Z)-5-bromo-3-((3-hydroxyphenyl) (pyrimidin-5-ylamino)methylene)indolin-2-one], with less than 10 µM; and `O=C1Nc2ccc(Br)cc2/C1=C(/Nc1c[nH]nc1Cl)c1ccccc1` [Example 54, (Z)-5-bromo-3-((3-chloro-1H-pyrazol-4-ylamino)(phenyl)methylene)indolin-2-one], with more than 30 µM.
